ChEMBL document CHEMBL4308834, “Novel Allosteric Activators for Ferroptosis Regulator Glutathione Peroxidase 4” (J Med Chem, 2018)
The source made the active and inactive calls. No cut-off for these calls is given here.

Target: T1, Polyunsaturated fatty acid 5-lipoxygenase (Homo sapiens) (UniProt P09917)
T1 sequence (whole entry): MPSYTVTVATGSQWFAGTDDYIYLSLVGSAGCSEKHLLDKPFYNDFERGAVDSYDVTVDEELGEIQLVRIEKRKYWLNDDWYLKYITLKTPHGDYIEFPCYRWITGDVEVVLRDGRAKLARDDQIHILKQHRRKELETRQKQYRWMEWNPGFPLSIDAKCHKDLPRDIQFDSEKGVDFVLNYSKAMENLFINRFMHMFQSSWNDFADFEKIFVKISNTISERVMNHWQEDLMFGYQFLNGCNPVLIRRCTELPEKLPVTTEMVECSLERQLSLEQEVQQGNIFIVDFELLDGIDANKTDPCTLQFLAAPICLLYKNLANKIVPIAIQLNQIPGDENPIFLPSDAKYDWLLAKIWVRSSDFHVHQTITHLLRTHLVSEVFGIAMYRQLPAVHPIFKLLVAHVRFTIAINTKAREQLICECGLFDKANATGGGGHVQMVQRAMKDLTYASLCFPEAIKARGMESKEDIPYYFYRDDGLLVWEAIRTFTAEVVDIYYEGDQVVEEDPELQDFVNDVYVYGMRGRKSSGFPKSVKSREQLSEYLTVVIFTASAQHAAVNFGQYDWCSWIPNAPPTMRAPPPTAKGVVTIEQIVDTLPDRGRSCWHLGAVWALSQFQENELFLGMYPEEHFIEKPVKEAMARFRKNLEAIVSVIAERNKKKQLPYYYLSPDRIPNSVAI
Experiment: Inhibition of human 5-LOX at 500 uM preincubated for 10 mins followed by arachidonic acid substrate addition in presence of H2DCFDA by spectrophotometric method

inhibition: inactive
Compound: NS(=O)(=O)c1ccc(NC(S)=NCc2ccc(Cl)cc2)cc1
